Values of other authors, collected in PMC8287861 (Frontiers in Microbiology, 2021).
In brackets after ≈: the same amount, converted by molar mass. Like-named read-outs stand apart in the source and are kept apart here. Values belong to the compound of their own block, whether it stands above or below them.

Tests used:
[1] = tested on: Pseudomonas aeruginosa; set-up: method as in Lomovskaya et al. (2021); conditions: challenge panel, QPX7728 at 8 μg/ml, ref Lomovskaya et al. (2021)
[2] = tested on: Pseudomonas aeruginosa; set-up: method as in Lomovskaya et al. (2021); conditions: panel reflecting current MIC distribution (N = 500); QPX7728 at 8 μg/ml; ref Lomovskaya et al. (2021)
[3] = tested on: KPC-producing strains of Klebsiella pneumoniae and blaKPC mutants; set-up: method as in Nelson et al., 2019; conditions: ref Nelson et al., 2019
[4] = tested on: carbapenem resistant Acinetobacter baumannii; conditions: ref Nelson et al., 2020b
[5] = tested on: β-lactamases; conditions: ref Hecker et al. (2020)
[6] = tested on: Enterobacterales producing ESBLs and carbapenemases; set-up: method as in Rubio-Aparicio et al., 2019; conditions: ref Rubio-Aparicio et al., 2019
[7] = 275 clinical isolates, meropenem alone

MIC50 ([1]; All (N = 290)): 4 µg/mL (≈ 6 µM) | MIC90 ([1]; All (N = 290)): >64 µg/mL | MIC50 ([1]; MBL (N = 61)): >64 µg/mL | MIC90 ([1]; MBL (N = 61)): >64 µg/mL | MIC50 ([1]; No MBL (N = 229)): 2 µg/mL (≈ 3 µM) | MIC90 ([1]; No MBL (N = 229)): >64 µg/mL | MIC50 [2]: 0.5 µg/mL (≈ 0.75 µM) | MIC90 [2]: 4 µg/mL (≈ 6 µM)
Compound: Cn1c(N)c(NC(=O)NCCN)c[n+]1CC1=C(C(=O)O)N2C(=O)[C@@H](NC(=O)/C(=N\OC(C)(C)C(=O)[O-])c3nsc(N)n3)[C@H]2SC1 [Ceftolozane, ceftolozane]

Compound: C[C@@H](O)[C@H]1C(=O)N2C(C(=O)O)=C(S[C@@H]3CN[C@H](C(=O)N(C)C)C3)[C@H](C)[C@H]12 [Meropenem, meropenem]
MIC ([3]; KP1252, KPC-3, TEM-1, SHV-11/FL): 64 µg/mL (≈ 167 µM) | MIC ([3]; KPM3191, KPC-3:: DDK duplication at aa#831 (KPC-29)): 4 µg/mL (≈ 10.4 µM) | MIC ([3]; KPM3192, KPC-3:: D179Y (KPC-31)): 0.5 µg/mL (≈ 1.3 µM) | MIC ([3]; KPM3200, KPC-3::duplication of EAVI (aa#278)): 64 µg/mL (≈ 167 µM) | MIC ([3]; KPM3205, KPC-3 ::duplication of KKDY (aa#273)): 16 µg/mL (≈ 41.7 µM) | MIC ([3]; KPM3210, KPC-2::D179N): 4 µg/mL (≈ 10.4 µM) | MIC ([3]; KPM3212, deletion of ELNSAI at aa#497): 1 µg/mL (≈ 2.61 µM) | MIC ([3]; KPM3213, KPC-2::D179Y (KPC-31), selected from KP1099): 4 µg/mL (≈ 10.4 µM) | MIC ([3]; KPM3214, KPC-2::D179A): 2 µg/mL (≈ 5.22 µM) | MIC ([3]; KPM3493, KPC-3::duplication of EL at aa#164 (KPC-25)): 1 µg/mL (≈ 2.61 µM) | MIC ([3]; KPM3494, KPC-3::R167S): 32 µg/mL (≈ 83.4 µM) | MIC ([3]; KPM3495, KPC-3::A175V): 32 µg/mL (≈ 83.4 µM) | MIC ([3]; KPM3511, KPC-3::P174Q): 4 µg/mL (≈ 10.4 µM) | MIC ([3]; KPM3512, KPC-3:: P174L): 8 µg/mL (≈ 20.9 µM) | MIC50 [4, 7]: 64 µg/mL (≈ 167 µM) | MIC90 [4, 7]: > 64 µg/mL | MIC90 of meropenem ([4]; with QPX7728 at 4 μg/ml): 8 µg/mL | MIC90 of meropenem ([4]; with QPX7728 at 8 μg/ml): 4 µg/mL | increase in meropenem potency ([4]; with increasing concentrations of QPX7728 (1–16 μg/ml)): 8–16 fold | MIC50 ([1]; All (N = 290)): 16 µg/mL (≈ 41.7 µM) | MIC90 ([1]; All (N = 290)): >64 µg/mL | MIC50 ([1]; MBL (N = 61)): >64 µg/mL | MIC90 ([1]; MBL (N = 61)): >64 µg/mL | MIC50 ([1]; No MBL (N = 229)): 16 µg/mL (≈ 41.7 µM) | MIC90 ([1]; No MBL (N = 229)): 64 µg/mL (≈ 167 µM) | MIC50 [2]: 0.5 µg/mL (≈ 1.3 µM) | MIC90 [2]: 16 µg/mL (≈ 41.7 µM)

Compound: CSCC(=O)N[C@H]1Cc2ccc(F)c(C(=O)O)c2OB1O [RPX7323]
β-lactamase inhibition (in words) [5]: capable of potently inhibiting serine enzymes from classes A-D

Compound: COc1ccc2c(c1C(=O)O)OB(O)[C@@H](Sc1nncs1)C2 [RPX7546]
β-lactamase inhibition (in words) [5]: improved potency against MBLs

MIC50 ([6]; All Enterobacterales (N = 972)): 0.25 µg/mL (≈ 0.652 µM) | MIC90 ([6]; All Enterobacterales (N = 972)): > 64 µg/mL | MIC50 ([6]; CRE KPC (N = 292)): 64/>64 μg/ml | MIC90 ([6]; CRE KPC (N = 292)): 64/>64 μg/ml | MIC50 ([6]; CRE MBL (N = 226)): 32 µg/mL (≈ 83.4 µM) | MIC90 ([6]; CRE MBL (N = 226)): > 64 µg/mL | MIC50 ([6]; CRE OXA-48 (N = 47)): 32 µg/mL (≈ 83.4 µM) | MIC90 ([6]; CRE OXA-48 (N = 47)): 64 µg/mL (≈ 167 µM) | MIC50 ([6]; ESBLs, no CRE (N = 371)): ≤ 0.06 µg/mL | MIC90 ([6]; ESBLs, no CRE (N = 371)): 0.5 µg/mL (≈ 1.3 µM) | MIC50 ([6]; Non-CP CRE): 8 µg/mL (≈ 20.9 µM) | MIC90 ([6]; Non-CP CRE): 16 µg/mL (≈ 41.7 µM)
Compound: C[C@@H](O)[C@H]1C(=O)N2C(C(=O)O)=C(SC3CN(C4=NCCS4)C3)[C@H](C)[C@H]12 [Tebipenem]
